Experimental findings from patent US9533987B2, “Heterocyclic derivates” (KALVISTA PHARMACEUTICALS LIMITED, priority 2013, dated 2017) are described below.

For data set [1], the target named is Factor XIIa (Homo sapiens (Human), UniProt P00748). The data set is described as follows: Determination of enzyme selectivity, Factor XIIa. In kind it is biochemical. The note with it: substrate at Km concentration. The method, then:
Determination of Enzyme Selectivity
Human serine protease enzymes plasmin, thrombin, trypsin, Factor Xa and Factor XIIa were assayed for enzymatic activity using an appropriate fluorogenic substrate. Protease activity was measured by monitoring the accumulation of liberated fluorescence from the substrate over 5 minutes. The linear rate of fluorescence increase per minute was expressed as percentage (%) activity. The Km for the cleavage of each substrate was determined by standard transformation of the Michaelis-Menten equation.

In data set [2] the target is Human KLK1 (Homo sapiens (Human), UniProt P06870). The data set is described as follows: Determination of the IC50 for KLK1 (fluorogenic substrate H-DVal-Leu-Arg-AFC). In kind it is biochemical. Particulars: 37° C. The method, then: Determination of the IC50 for KLK1
Human KLK1, sequence (P06870 25-262): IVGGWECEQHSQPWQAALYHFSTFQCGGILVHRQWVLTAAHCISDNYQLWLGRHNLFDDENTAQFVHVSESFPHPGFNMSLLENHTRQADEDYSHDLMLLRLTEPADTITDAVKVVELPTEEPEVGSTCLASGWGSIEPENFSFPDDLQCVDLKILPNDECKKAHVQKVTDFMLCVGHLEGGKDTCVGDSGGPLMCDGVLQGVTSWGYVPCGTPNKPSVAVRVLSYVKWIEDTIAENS
Human KLK1 (Callbiochem) was incubated at 37° C. with the fluorogenic substrate H-DVal-Leu-Arg-AFC and various concentrations of the test compound. Residual enzyme activity (initial rate of reaction) was determined by measuring the change in […] at 410 nm and the IC50 value for the test compound was determined.

The nature of data set [3]: Pharmacokinetics following a single oral dose in male Sprague-Dawley rats. In kind it is in vivo. Particulars: rat, plasma. The method, then:
Pharmacokinetic studies of the compounds in Table 16 were performed to assess the pharmacokinetics following a single oral dose in male Sprague-Dawley rats. […] Following dosing, blood samples were collected over a period of 24 hours. Sample times were 5, 15 and 30 minutes then 1, 2, 4, 6, 8, 12 and 24 hours. Following collection, blood samples were centrifuged and the plasma fraction analysed for concentration of test compound by LCMS.

For data set [4], the target named is Human plasma kallikrein (Homo sapiens (Human), UniProt P03952). The data set is described as follows: Determination of the IC50 for plasma kallikrein (fluorogenic substrate H-DPro-Phe-Arg-AFC). In kind it is biochemical. The note with it: 37° C., read-out: IC50 (human PKaI). The procedure:
Determination of the IC50 for Plasma Kallikrein
Human plasma kallikrein (Protogen) was incubated at 37° C. with the fluorogenic substrate H-DPro-Phe-Arg-AFC and various concentrations of the test compound. Residual enzyme activity (initial rate of reaction) was determined by measuring the change in […] at 410 nm and the IC50 value for the test compound was determined.

Some results are limits rather than exact numbers.

Human plasma kallikrein, sequence (P03952 391-638): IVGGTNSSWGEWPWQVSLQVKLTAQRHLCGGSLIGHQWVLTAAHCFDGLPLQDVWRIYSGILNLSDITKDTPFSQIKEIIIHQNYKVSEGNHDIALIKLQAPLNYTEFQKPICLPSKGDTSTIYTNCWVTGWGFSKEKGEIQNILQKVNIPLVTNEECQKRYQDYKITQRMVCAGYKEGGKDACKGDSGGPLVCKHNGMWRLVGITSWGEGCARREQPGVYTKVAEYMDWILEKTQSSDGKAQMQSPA
Human plasma kallikrein, sequence (P03952 20-390 partner): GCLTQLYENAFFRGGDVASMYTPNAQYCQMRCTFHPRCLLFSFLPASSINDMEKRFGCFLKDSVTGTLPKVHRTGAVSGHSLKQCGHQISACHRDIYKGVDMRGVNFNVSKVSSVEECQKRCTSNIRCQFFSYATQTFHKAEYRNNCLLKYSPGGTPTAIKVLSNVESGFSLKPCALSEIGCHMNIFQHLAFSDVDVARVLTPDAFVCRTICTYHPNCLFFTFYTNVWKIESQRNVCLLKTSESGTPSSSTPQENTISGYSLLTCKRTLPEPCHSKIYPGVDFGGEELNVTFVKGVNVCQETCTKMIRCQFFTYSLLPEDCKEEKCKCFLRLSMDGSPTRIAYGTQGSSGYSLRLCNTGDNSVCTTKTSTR
Factor XIIa, sequence (P00748 373-615): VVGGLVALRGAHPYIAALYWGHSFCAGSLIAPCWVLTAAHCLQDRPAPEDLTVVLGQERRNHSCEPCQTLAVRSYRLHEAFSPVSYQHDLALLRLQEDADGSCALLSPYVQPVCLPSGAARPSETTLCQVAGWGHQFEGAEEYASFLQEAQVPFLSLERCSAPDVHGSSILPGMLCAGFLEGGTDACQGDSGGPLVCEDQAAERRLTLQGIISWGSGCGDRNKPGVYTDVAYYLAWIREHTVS

For `Cc1cnn(Cc2ccc(Cn3cc(C(=O)NCc4ccc5c(N)nccc5c4)c(C)n3)cc2)c1` [Example 11, 3-Methyl-1-[4-(4-methyl-pyrazol-1-ylmethyl)-benzyl]-1H-pyrazole-4-carboxylic acid (1-amino-isoquinolin-6-ylmethyl)-amide], the IC50 is above 10000 nM in data set [1], 8.86 µM in data set [2] and 0.00189 µM in data set [4]. For the same molecule, the highest level in data set [3] (single po dose 10 mg/kg) (Cmax) was 134 ng/mL. Moreover, the time of peak concentration (Tmax) in data set [3] (single po dose 10 mg/kg) was 23 min.
As for `Cc1cnn(Cc2ccc(Cn3cc(C(=O)NCc4ccc5c(N)nccc5c4)c(C4CC4)n3)cc2)c1` [Example 12, 3-Cyclopropyl-1-[4-(4-methyl-pyrazol-1-ylmethyl)-benzyl]-1H-pyrazole-4-carboxylic acid (1-amino-isoquinolin-6-ylmethyl)-amide], the 50% inhibitory concentration (IC50) in data set [1] is above 10000 nM; in data set [2], 6.06 µM; in data set [4] it was 0.00258 µM. This molecule also returned a Cmax in data set [3] (single po dose 10 mg/kg) of 155 ng/mL. Further, the Tmax in data set [3] (single po dose 10 mg/kg) is 30 min.
In the case of `Nc1nccc2cc(CNC(=O)c3cn(Cc4ccc(N5CCCC5)nc4)nc3C(F)(F)F)ccc12` [Example 24, 1-(6-Pyrrolidin-1-yl-pyridin-3-ylmethyl)-3-trifluoromethyl-1H-pyrazole-4-carboxylic acid (1-amino-isoquinolin-6-ylmethyl)-amide], the IC50 in data set [1] is above 1000 nM; in data set [2], above 4 µM; in data set [4], 0.00966 µM. The Cmax in data set [3] (single po dose 4 mg/kg) was found to be 97 ng/mL. The Tmax in data set [3] (single po dose 4 mg/kg) was 420 min.
As to `Cc1cnn(Cc2ccc(Cn3cc(C(=O)NCc4ccc5c(N)nccc5c4)c(C(F)(F)F)n3)cc2)c1` [Example 36, 1-[4-(4-Methyl-pyrazol-1-ylmethyl)-benzyl]-3-trifluoromethyl-1H-pyrazole-4-carboxylic acid (1-amino-isoquinolin-6-ylmethyl)-amide], the IC50 was above 10000 nM in data set [1], above 40 µM in data set [2] and 0.00216 µM in data set [4]. The same molecule registered a Cmax in data set [3] (single po dose 10 mg/kg) of 642 ng/mL. In addition, the Tmax in data set [3] (single po dose 10 mg/kg) is 75 min.
In the case of `O=C(NCc1cnc2[nH]ccc2c1)c1cnn(Cc2cccc(Oc3ccccc3)c2)c1` [Example 108, 1-(3-Phenoxy-benzyl)-1H-pyrazole-4-carboxylic acid (1H-pyrrolo[2,3-b]pyridin-5-ylmethyl)-amide], the IC50 in data set [1] was above 40000 nM; in data set [2] it was 20.6 µM; in data set [4], 22 µM.
Take `O=C(NCc1cnc2[nH]ccc2c1)c1cnn(Cc2ccc(COc3cccc(F)n3)cc2)c1` [Example 109, 1-[4-(6-Fluoro-pyridin-2-yloxymethyl)-benzyl]-1H-pyrazole-4-carboxylic acid (1H-pyrrolo[2,3-b]pyridin-5-ylmethyl)-amide]: the IC50 in data set [1] was above 40000 nM; in data set [2], above 40 µM; in data set [4], 4.2 µM.
The like results for `Cc1cnn(Cc2ccc(Cn3cc(C(=O)NCc4ccc5[nH]c(C)cc5c4)c(C(F)(F)F)n3)cc2)c1` [Example 110, 1-[4-(4-Methyl-pyrazol-1-ylmethyl)-benzyl]-3-trifluoromethyl-1H-pyrazole-4-carboxylic acid (2-methyl-1H-indol-5-ylmethyl)-amide] were, in that order, above 10000 nM, above 10 µM and 0.562 µM.
In the case of `Cc1cnn(Cc2ccc(Cn3cc(C(=O)NCc4ccc5[nH]ncc5c4)c(C(F)(F)F)n3)cc2)c1` [Example 111, 1-[4-(4-Methyl-pyrazol-1-ylmethyl)-benzyl]-3-trifluoromethyl-1H-pyrazole-4-carboxylic acid (1H-indazol-5-ylmethyl)-amide], the figures for the IC50 in data set [1], in data set [2] and in data set [4] were above 10000 nM, 7.17 µM and 0.217 µM, respectively.
Consider `Cc1cnn(Cc2ccc(Cn3cc(C(=O)NCc4ccc5[nH]ccc5c4)c(C(F)(F)F)n3)cc2)c1` [Example 112, 1-[4-(4-Methyl-pyrazol-1-ylmethyl)-benzyl]-3-trifluoromethyl-1H-pyrazole-4-carboxylic acid (1H-indol-5-ylmethyl)-amide], for which the IC50 in data set [1] was above 10000 nM; in data set [2], above 10 µM; in data set [4] it was 0.0606 µM.
As for `Cc1cnn(Cc2ccc(Cn3cc(C(=O)NCc4cnc5[nH]ccc5c4)nn3)cc2)c1` [Example 115, 1-[4-(4-Methyl-pyrazol-1-ylmethyl)-benzyl]-1H-[1,2,3]triazole-4-carboxylic acid (1H-pyrrolo[2,3-b]pyridin-5-ylmethyl)-amide], the IC50 in data set [1] is above 10000 nM; in data set [2] it was above 10 µM; in data set [4], 0.177 µM.
The like results for `Cc1cnn(Cc2ccc(Cn3cc(C(=O)NCc4cc5cc[nH]c5nc4C)nn3)cc2)c1` [Example 116, 1-[4-(4-Methyl-pyrazol-1-ylmethyl)-benzyl]-1H-[1,2,3]triazole-4-carboxylic acid (6-methyl-1H-pyrrolo[2,3-b]pyridin-5-ylmethyl)-amide] were, in that order, above 10000 nM, above 10 µM and 0.507 µM.
For `Cc1cnn(Cc2ccc(Cn3cc(C(=O)NCc4cnc5[nH]ccc5c4)cn3)cc2)c1` [Example 117, 1-[4-(4-Methyl-pyrazol-1-ylmethyl)-benzyl]-1H-pyrazole-4-carboxylic acid (1H-pyrrolo[2,3-b]pyridin-5-ylmethyl)-amide], the IC50 is above 10000 nM in data set [1], above 10 µM in data set [2] and 0.078 µM in data set [4]. This molecule also returned a Cmax in data set [3] (single po dose 10 mg/kg) of 98 ng/mL. Moreover, in data set [3] (single po dose 10 mg/kg), the Tmax was 45 min.
On to `Cc1cnn(Cc2ccc(Cn3cc(C(=O)NCc4c(C)nc5[nH]ccc5c4C)cn3)cc2)c1` [Example 118, 1-[4-(4-Methyl-pyrazol-1-ylmethyl)-benzyl]-1H-pyrazole-4-carboxylic acid (4,6-dimethyl-1H-pyrrolo[2,3-b]pyridin-5-ylmethyl)-amide], for which the IC50 in data set [1] is above 40000 nM; in data set [2], above 40 µM; in data set [4], 0.014 µM.
As for `Cc1cnn(Cc2ccc(Cn3cc(C(=O)NCc4cnc5[nH]ccc5c4)c(C4CC4)n3)cc2)c1` [Example 120, 3-Cyclopropyl-1-[4-(4-methyl-pyrazol-1-ylmethyl)-benzyl]-1H-pyrazole-4-carboxylic acid (1H-pyrrolo[2,3-b]pyridin-5-ylmethyl)-amide], the IC50 is above 10000 nM in data set [1], above 10 µM in data set [2] and 0.118 µM in data set [4].
Turning to `Cc1cnn(Cc2ccc(Cn3cc(C(=O)NCc4cccc5[nH]ccc45)c(C(F)(F)F)n3)cc2)c1` [Example 123, 1-[4-(4-Methyl-pyrazol-1-ylmethyl)-benzyl]-3-trifluoromethyl-1H-pyrazole-4-carboxylic acid (1H-indol-4-ylmethyl)-amide], the figures for the IC50 in data set [1], in data set [2] and in data set [4] were above 10000 nM, above 10 µM and 0.545 µM, respectively.
On to `Cc1cnn(Cc2ccc(Cn3cc(C(=O)NCc4cccc5[nH]ncc45)c(C(F)(F)F)n3)cc2)c1` [Example 124, 1-[4-(4-Methyl-pyrazol-1-ylmethyl)-benzyl]-3-trifluoromethyl-1H-pyrazole-4-carboxylic acid (1H-indazol-4-ylmethyl)-amide], for which the IC50 in data set [1] was above 10000 nM; in data set [2], 7.23 µM; in data set [4], 0.146 µM.
Turning to `O=C(NCc1cccc2[nH]ncc12)c1cn(Cc2ccc(Cn3ccccc3=O)cc2)nc1C(F)(F)F` [Example 126, 1-[4-(2-Oxo-2H-pyridin-1-ylmethyl)-benzyl]-3-trifluoromethyl-1H-pyrazole-4-carboxylic acid (1H-indazol-4-ylmethyl)-amide], the IC50 in data set [1] is above 10000 nM; in data set [2], above 10 µM; in data set [4], 0.0229 µM. The molecule further displayed a Cmax in data set [3] (single po dose 10 mg/kg) of 56 ng/mL. Further, the Tmax in data set [3] (single po dose 10 mg/kg) is 30 min.

For orientation: IC50 means the point on the concentration scale where inhibition reaches its midpoint. Usually Cmax stands for the maximum level reached in the sampled fluid or tissue. What is called Tmax is the time at which the peak concentration occurs.
